≈ marks a conversion by molar mass, not a printed value.
Tests used:
Botrytis cinerea [1] = test: Dose response, vapor-coated clamshells; strawberries (Example 3); format: in vivo; conditions: Inoculated Fruit, sublimation
Experimental: Five milligrams of Compound A was dissolved in 1 ml of ethanol prior to being uniformly administered to the interior of the clamshell by painting or spraying, and then dried for 5 minutes. After coating the clamshells with Compound A using various application techniques (i.e., sublimation, spraying, or painting), eight ethanol-washed strawberries were placed in the clamshell with stem end facing downwards. Each strawberry fruit was wounded using a T15 screwdriver tip to a uniform depth of eight mm (8 mm). […] Uninoculated strawberries were removed from their commercial package, and directly transferred into treated clamshells without any washing or inoculation steps.
Treated clamshells lids were closed, and then placed at 1° C. for an initial time period of 5 days. Clamshells were then removed from low temperature, and held for a second time period of 6 days at room temperature where the point of inoculation on the strawberry fruits was assessed for indication of disease incidence reported as a percentage (%). Severity of disease incidence was also reported.
This in vivo assay was used to evaluate the ability of vaporized Compound A to volatilize from a clamshell in order to control or inhibit pathogenic microorganisms. This experiment was conducted exactly as described in Example 1, with a few exceptions. After equilibrating the clamshell overnight at 21° C., Compound A was administered to the clamshell as a vapor only. In addition, Compound A was vapor-coated onto the surface of the clamshell at a final treatment rate of 3.16 mg/clamshell, 1 mg/clamshell, or 0.316 mg/clamshell. After vapor-coating application, Compound A headspace was permitted to equilibrate overnight at 21° C. Strawberries were inoculated with Botrytis cinerea, placed within the clamshells for an initial time period, and assessed for disease incidence and severity over a second time period as described in Example 1.

Botrytis cinerea [2] = test: Gray mold on strawberry, volatile assay (Example 23); format: in vivo
Experimental: Eight strawberries (per repetition, in triplicate) are placed in an industry standard 1-lb PET clamshell with the stem-end facing down.
Compound A is mixed acetone and 250 μL of the mixture is pipetted into a small glass tube. […] After incubation, fruits are evaluated for disease (scale 0 to 4, with ≤1 indicating marketable fruit and 4 indicating ≥50% of fruit surface covered by pathogen) up to 4 days at 21° C.

Penicillium expansum = test: Blue mold on apple and pear, volatile assay (Example 25); conditions: 50 mg/L, day 3 at 21 C after 5 days at 1 C
Experimental: Two apples, pears or oranges are placed in a clamshell, and three fresh wounds are made near the equatorial region of each fruit. Each fruit wound is then inoculated with 20 μL of 1×10^6 spores per mL of Penicillium expansum or digitatum suspension, respectively. The inoculum is allowed to dry for two hours prior to treatment application as a volatile or contact.
Volatile Assay: Clamshells are then placed at the bottom of a 2.55-L SnapWare airtight container (Model #109842). […] The solutions are pipetted into Whatman filter disks mounted to the inside lid of the container. The chambers are then incubated at 1° C. for 5 days, removed to 21° C., and evaluated on day 3 by determining the diameter (mm) of rot development (browning) or sporulation.

Epidermophyton floccus = test: In vitro volatile assay (Example 26); format: cell-based; conditions: Epidermophyton, 120 h, 5 days at 28 C, 100% control, read-out: MIC (mg/L) Epidermophyton floccus
Experimental: (§1) Volatile assay: 6-well (16.5 mL volume per well) microtiter plates are used in an in vitro inhibition assay for Compounds A and 31, and compared to other registered fungicides (5-fluorocytosine, Amphotericin B, aspofungin diacetate, Fluconazole and Itraconazole). A 7.5-mL volume of half strength PDA is added to each well. After drying, a mycelial plug (5 mm diameter) is aseptically obtained from actively growing cultures of Epidermophyton floccus, Trichophyton rubrum, or Trichophyton mentagrophytes and placed at the center of the plate with the mycelial side in contact with the agar. A Whatman #1 filter disk (Cat. No. 1001-325) is placed, in duplicate, on the underside of a polyethylene PCR plate sealing film. […] The headspace around the inoculum is then sealed inside the well by the film with the adhering disk containing the fungicide and incubated inverted for 5 days at 28° C.

[3] = tested on: Trichophyton mentagrophytes; test: In vitro volatile assay (Example 26); format: cell-based; conditions: Trichophyton mentagrophytes, 120 h, 5 days at 28 C, 100% control, read-out: MIC (mg/L) Trichophyton mentagrophytes
Experimental: as §1

Trichophyton rubrum = test: In vitro volatile assay (Example 26); format: cell-based; conditions: Trichophyton rubrum, 120 h, 5 days at 28 C, 100% control, read-out: MIC (mg/L) Trichophyton rubrum
Experimental: as §1

## OB1OCc2cc(F)ccc21 [Compound A, 5-fluoro-1,3-dihydro-1-hydroxy-2,1-benzoxaborole]
Botrytis cinerea [1]; 0.316 mg per clamshell, Day 1
  Gray Mold Severity (0-4): 0.4
Botrytis cinerea [1]; 0.316 mg per clamshell, Day 2
  Gray Mold Severity (0-4): 1.3
Botrytis cinerea [1]; 0.316 mg per clamshell, Day 3
  Gray Mold Severity (0-4): 2.2
Botrytis cinerea [1]; 0.316 mg per clamshell, Day 4
  Gray Mold Severity (0-4): 3.4
Botrytis cinerea [1]; 0.316 mg per clamshell, Day 5
  Gray Mold Severity (0-4): 3.8
Botrytis cinerea [1]; 0.316 mg per clamshell, Day 6
  Gray Mold Severity (0-4): 3.9
Botrytis cinerea [1]; 1.00 mg per clamshell, Day 1
  Gray Mold Severity (0-4): 0.0
Botrytis cinerea [1]; 1.00 mg per clamshell, Day 2
  Gray Mold Severity (0-4): 0.0
Botrytis cinerea [1]; 1.00 mg per clamshell, Day 3
  Gray Mold Severity (0-4): 0.0
Botrytis cinerea [1]; 1.00 mg per clamshell, Day 4
  Gray Mold Severity (0-4): 0.1
Botrytis cinerea [1]; 1.00 mg per clamshell, Day 5
  Gray Mold Severity (0-4): 0.4
Botrytis cinerea [1]; 1.00 mg per clamshell, Day 6
  Gray Mold Severity (0-4): 0.7
Botrytis cinerea [1]; 3.16 mg per clamshell, Day 1
  Gray Mold Severity (0-4): 0.0
Botrytis cinerea [1]; 3.16 mg per clamshell, Day 2
  Gray Mold Severity (0-4): 0.0
Botrytis cinerea [1]; 3.16 mg per clamshell, Day 3
  Gray Mold Severity (0-4): 0.0
Botrytis cinerea [1]; 3.16 mg per clamshell, Day 4
  Gray Mold Severity (0-4): 0.0
Botrytis cinerea [1]; 3.16 mg per clamshell, Day 5
  Gray Mold Severity (0-4): 0.1
Botrytis cinerea [1]; 3.16 mg per clamshell, Day 6
  Gray Mold Severity (0-4): 0.2
Botrytis cinerea [2]; 0.02 mg/L, Day 0
  Disease Severity (0 to 4): 0.0
Botrytis cinerea [2]; 0.02 mg/L, Day 1
  Disease Severity (0 to 4): 0.0
Botrytis cinerea [2]; 0.02 mg/L, Day 2
  Disease Severity (0 to 4): 0.1
Botrytis cinerea [2]; 0.02 mg/L, Day 3
  Disease Severity (0 to 4): 0.2
Botrytis cinerea [2]; 0.02 mg/L, Day 4
  Disease Severity (0 to 4): 0.7
Botrytis cinerea [2]; 0.1 mg/L, Day 0
  Disease Severity (0 to 4): 0.0
Botrytis cinerea [2]; 0.1 mg/L, Day 1
  Disease Severity (0 to 4): 0.0
Botrytis cinerea [2]; 0.1 mg/L, Day 2
  Disease Severity (0 to 4): 0.0
Botrytis cinerea [2]; 0.1 mg/L, Day 3
  Disease Severity (0 to 4): 0.0
Botrytis cinerea [2]; 0.1 mg/L, Day 4
  Disease Severity (0 to 4): 0.0
Botrytis cinerea [2]; 0.5 mg/L, Day 0
  Disease Severity (0 to 4): 0.0
Botrytis cinerea [2]; 0.5 mg/L, Day 1
  Disease Severity (0 to 4): 0.0
Botrytis cinerea [2]; 0.5 mg/L, Day 2
  Disease Severity (0 to 4): 0.0
Botrytis cinerea [2]; 0.5 mg/L, Day 3
  Disease Severity (0 to 4): 0.0
Botrytis cinerea [2]; 0.5 mg/L, Day 4
  Disease Severity (0 to 4): 0.0
Botrytis cinerea [2]; 2.5 mg/L, Day 0
  Disease Severity (0 to 4): 0.0
Botrytis cinerea [2]; 2.5 mg/L, Day 1
  Disease Severity (0 to 4): 0.0
Botrytis cinerea [2]; 2.5 mg/L, Day 2
  Disease Severity (0 to 4): 0.0
Botrytis cinerea [2]; 2.5 mg/L, Day 3
  Disease Severity (0 to 4): 0.0
Botrytis cinerea [2]; 2.5 mg/L, Day 4
  Disease Severity (0 to 4): 0.0
Penicillium expansum
  Apple Browning (mm): 0.4 mm
  Apple Sporulation (mm): 0.0 mm
  Pear Browning (mm): 5.7 mm
  Pear Sporulation (mm): 0.0 mm
Epidermophyton floccus
  MIC: 2 mg/L (≈ 13.2 µM)
[3]
  MIC: 2 mg/L (≈ 13.2 µM)
Trichophyton rubrum
  MIC: 2 mg/L (≈ 13.2 µM)

— US12329158B2, “Large-scale methods of uniformly coating packaging surfaces with a volatile antimicrobial to preserve food freshness” (AGROFRESH INC., priority 2013, dated 2025)
